Measurements published in US4275057A (The United States of America as represented by the …, priority 1980, dated 1981).

How the values were obtained:
adenosine deaminase = conditions: qualitative statement; cited from earlier work
[1] = target: T1, Mouse kidney cytidine deaminase (Mus musculus, UniProt P56389); assay: Cytidine deaminase inhibition, mouse kidney enzyme; assay type: biochemical
T1 construct: isolated and partially purified from mouse kidney acetone powder; tissue Sigma Chemical Co; host or cells: mouse kidney (acetone powder, buffer extract, ammonium sulfate fractionation)

[2] = target: T2, Cytidine deaminase from human liver (Homo sapiens, UniProt P32320); assay: Cytidine deaminase inhibition, human liver enzyme; assay type: biochemical
T2 construct: Cytidine deaminase from human liver was isolated; from tissue; host or cells: human liver
T2 sequence (P32320 whole entry): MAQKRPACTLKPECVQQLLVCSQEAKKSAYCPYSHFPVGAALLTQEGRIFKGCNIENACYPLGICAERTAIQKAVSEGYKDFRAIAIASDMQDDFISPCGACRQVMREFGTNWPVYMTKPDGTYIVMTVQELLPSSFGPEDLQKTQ

T1 sequence (P56389 whole entry): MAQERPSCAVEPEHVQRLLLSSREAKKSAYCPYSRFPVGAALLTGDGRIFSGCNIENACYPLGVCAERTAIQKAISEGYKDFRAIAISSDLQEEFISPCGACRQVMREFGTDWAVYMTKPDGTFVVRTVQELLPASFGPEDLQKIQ

Row | Ki [1] | Ki [2] | SMILES | inhibition of adenosine deaminase (in words) (adenosine deaminase)
1 | – | – | OC[C@H]1O[C@@H](n2cnc3c2N=CNC[C@H]3O)C[C@@H]1O [2'-deoxycoformycin] | very potent adenosine deaminase inhibitor
2 | 0.2 µM | – | O=C1NCCCCN1C1C[C@H](O)[C@@H](CO)O1 (stereo partly drawn) [Compound 3d, 1-(2-deoxy-D-erythro-pentofuranosyl)-perhydro-1,3-diazepin-2-one] | –
3 | 10 µM | 10 µM | O=C1CCNC(=O)N([C@@H]2O[C@H](CO)[C@@H](O)[C@H]2O)C1 [Compound 8b, 3-(β-D-Ribofuranosyl)-5-keto-perhydro-1,3-diazepin-2-one] | –
